Results reported in US11905244B2, “Chemical modulators of store-operated calcium channels and their therapeutic applications” (The Texas A&M University System, priority 2017, dated 2024).
Entries after “also recorded” stand apart in the source; their conditions may differ. Read-outs that look alike come from different tables or passages of the source.

Legend:
[1] = target: CRAC channel (Homo sapiens (Human), UniProt Q96D31); test: GFP-NFAT translocation-based high-content screening (TG-stimulated HeLa cells stably expressing GFP-NFAT); type: cell-based; details: for Inhibitory activity on CRAC channel in primary screening (NFAT nucleus-to-cytosol ratio): 200 μM compound
Description: It is known that thapsigargin (TG) can induce the CRAC channel to open resulting in the calcium influx. The elevation of calcium in cytoplasm can activate the Ca^2+-calcineurin-NFAT pathway followed by NFAT translocation from the cytoplasm to the nucleus to regulate gene transcription. Therefore, the inventors built a GFP-NFAT translocation-based high-content screening method to evaluate the activity of compounds on CRAC channel. Briefly, a HeLa cell line stably expressing GFP-NFAT was established and used, and the images after chemical stimulation in the presence of TG were acquired using an IN Cell Analyzer 6000 confocal laser imaging system, and then the GFP fluorescent intensity ratio between cytoplasm and nucleus was analyzed to reflect the inhibitory activity of compound on CRAC channel.
Briefly, GFP-NFAT stable cells were cultured in Dulbecco's modified eagle's medium (DMEM) supplemented with 10% FBS in 5% carbon dioxide at 37° C. When it reached 90% confluency, a cell suspension with a concentration of […] was prepared, and an amount of 2000 cells per well (25 μL/well) was seeded in 384 well plate, putting it at the room temperature for 1 h to make sure the cells distribute evenly, then the cells were incubated overnight. First, primary screening of the selected compounds was conducted. A series of compound solutions with a concentration of 200 μM in MEDM medium were prepared in a 96 well plate and then added to a 384 well plate using a Beckman Coulter automatic drug adding system, in 4 duplicates, and incubated for 30 min at 37° C. SKF was selected as the positive control. Then, 1 μM TG and 1 mM Ca^2+ were added to 384-well plate using Beckman Coulter automatic drug adding system and incubated for 20 min. Subsequently, 384 well plate was gently washed with PBS twice, and the cells were fixed with 4% PFA (25 μl per well) for 10˜15 mins at room temperature, then washed with PBS gently, added 0.5% Triton X-100 (25 μL per well), and incubated for 5 mins aFt room temperature, stained with DAPI (1 μg/mL) for 5˜10 mins at room temperature, washed with PBS and added 30 μL PBS per well to image on confocal laser imaging system (objective lens: 10×, FITC and UV). Using Pipeline Plot software (NAFT translocation protocol), the intensity of green fluorescence was analyzed in nucleus and cytosol, calculate the ratio of nucleus:cytosol, normalize TG stimulate NFAT translocation as 1 and no TG adding as 0. Finally, the data was analyzed using GraphPad Prism 5 software.

[2] = test system: calcium influx; test: Inhibitory activity on calcium influx; type: cell-based
[3] = test system: cytokine IL-2 expression in primary T cells; test: Effect of compounds on cytokine expression in primary T cells (flow cytometry); type: cell-based; details: Mus musculus, T-cell
Description: The lymph nodes and a spleen from mouse were collected, and then the immune cells were induced to differentiate towards Th1 cells in presence of α-CD3, α-CD28, IL-12, and IL-2. After obtaining Th1 cells, the cells were amplified and then the cells were treated with drugs. The expression level of the cytokine was analyzed using flow cytometry.

[4] = test system: IL-2 and IFNγ expression in Jurkat cell; test: Cytokine expression in Jurkat cells; type: cell-based
[5] = test system: MDA-MB-231 breast cancer cells; test: Migration assay (wound healing assay); type: cell-based; details: MDA-MB-231, wound healing assay
Description: The effect of compounds on inhibiting migration was evaluated using wound healing assay. Briefly, cells were seeded in a six well-plate, and a wound was generated by scratching the cell monolayer with a 200 μL pipette tip. Then, cells were continued to be cultured in the presence or absence of compounds, and the photographic recording was performed at 0 h, 24 h, and 48 h respectively. The number of the migrated cells was calculated with ImageJ software.

[6] = test system: MDA-MB-231 breast cancer cells; test: Invasion assay; type: cell-based
[7] = test system: azoxymethane (AOM)-induced mouse colon cancer model; test: Azoxymethane (AOM)-induced mouse colon cancer model; type: in vivo; details: treated for 8 weeks
Description: To induce colon cancer in situ, mice (four month old) were randomly divided into three groups: (1) AOM control group; (2) Compound 53 group, (3) CsA group, and injected with AOM subcutaneously (10 mg/kg body weight) once a week for 4 weeks. Then, Compound 53 and CsA group were treated with Compound 53 and CsA respectively for 8 weeks, and the control group was treated with 0.9% NaCl solution. Then, mice were killed and the colon was isolated. The number of the tumors formed was analyzed.

[8] = test system: Jurkat cells; test: Cell cycle analysis in Jurkat cells; type: cell-based; details: compared to control
Description: (§1) Cells were treated with or without compounds at 37° C. with 5% CO2. After incubation for 24 h, cells were collected by trypsinization and fixed with cold 95% ethanol over 30 min at 4° C. Subsequently, the cell suspension was centrifuged at 1000 rmp/5 min, and washed with PBS one time. The cell pellets were resuspended in 0.4 mL PBS and treated with RNAase A (0.1 mg/mL) at 37° C. for 30 min. Then, propidium iodine (50 μg/mL, PI) was added and the cells were stained for 30 min at 37° C. Analysis of cellular DNA content was performed by flow cytometry.

[9] = test system: U87 cells; test: Cell cycle analysis in U87 cells; type: cell-based; details: compared to control
Description: as §1

[10] = GFP-NFAT translocation assay, read-out: IC50 on CRAC channel
[11] = Table 2, unit inferred, read-out: IC50 of the compounds (inhibitory activity on CRAC channel)

Sequence of CRAC channel (Q96D31 whole entry): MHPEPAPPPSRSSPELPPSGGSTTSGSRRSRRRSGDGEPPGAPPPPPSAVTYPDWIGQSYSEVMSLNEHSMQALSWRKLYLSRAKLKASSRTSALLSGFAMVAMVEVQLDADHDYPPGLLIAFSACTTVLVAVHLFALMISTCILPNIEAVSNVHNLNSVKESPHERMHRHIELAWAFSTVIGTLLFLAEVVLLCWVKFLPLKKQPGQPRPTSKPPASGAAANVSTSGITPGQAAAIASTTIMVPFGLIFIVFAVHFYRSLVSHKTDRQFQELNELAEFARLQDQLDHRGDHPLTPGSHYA

CCN/C(=N\c1cc(Cl)cc(Cl)c1)S[C@H]1CC(=O)N(c2ccc(C(=O)O)cc2)C1=O [Compound 41]
Inhibitory activity on CRAC channel in primary screening (NFAT nucleus-to-cytosol ratio) [1]: good activity | IC50 [1, 10]: ~100 µM | IC50 ([1]; Table 1, hits from virtual screening, unit inferred, read-out: IC50 Value): 279 µM | Inhibitory activity on calcium influx [2]: obvious inhibitory activity

COC(=O)c1ccc(N2C(=O)CC(S/C(=N\c3ccccc3)NCCc3ccc(S(N)(=O)=O)cc3)C2=O)cc1 (stereo not shown) [Compound 53]
Inhibitory activity on CRAC channel in primary screening (NFAT nucleus-to-cytosol ratio) [1]: good inhibition | IC50 [1, 10]: 8.14 µM | IC50 [1, 11]: 13 µM | IC50 [3]: 15.6 ± 1.17 µM | IL-2 and IFNγ (cytokine) expression [4]: inhibit IL-2 and IFNγ expression; also recorded: inhibits cytokine expression | Cell migration [5]: greatly inhibit | Cell invasion [6]: greatly inhibit | Antitumor activity compared with positive control drug CsA [7]: better than the positive control drug CsA | Number of the formed tumors in the colon [7]: greatly decrease the number of the formed tumors; also recorded: reducing the number of tumors formed compared to the control group

CCOC(=O)c1ccc(N2C(=O)CC(S/C(=N/c3ccccc3)NC3CC3)C2=O)cc1 (stereo not shown) [Compound 87]
IC50 [1, 11]: 0.95 µM | IC50 [3]: 0.86 ± 0.12 µM | Effect on cell cycle [8]: cell cycle arrest at GO stage | Effect on cell cycle [9]: cell cycle arrest at GO stage | Cell migration [5]: greatly inhibit | Cell invasion [6]: greatly inhibit
